Patent publication US8309685B2 (Celgene Avilomics Research, Inc., priority 2007, dated 2012)
Like-named read-outs stand apart in the source and are kept apart here.

Key:
[1] = target: T1, D168A mutant of the HCV NS3/4A 1b protease enzyme (Hepatitis C virus genotype 1b, UniProt P26663, D1194A); experiment: HCV Protease FRET Assay (IC50), D168A mutant; format: biochemical
T1 construct: 10× stocks of NS3/4A protease enzyme from Bioenza (Mountain View, Calif.); purchased Bioenza (Mountain View, Calif.)

[2] = tested on: cell line ET (luc-ubi-neo/ET), human Huh7 hepatoma cell line; experiment: Method A: cytotoxicity in ET replicon cells (CytoTox-1); format: cell-based; settings: concentration decreasing cell viability by 50%, 72 hr
Outline: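 ET cells (Huh7 carrying luciferase HCV replicon), 5×10^3 cells/well, given six 3-fold compound concentrations in DMEM with 5% FBS. After 72 hr, while subconfluent, cell number was measured with CytoTox-1 reagent. Interferon alpha-2b served as positive control.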

[3] = tested on: HCV RNA replicon in cell line ET (luc-ubi-neo/ET), human Huh7 hepatoma; experiment: Method A: HCV RNA replicon antiviral assay (luciferase, ET cell line); format: cell-based, Hepatitis C virus; settings: Hepatitis C virus, Huh-7
Outline: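 ET replicon cells (Huh7 carrying luciferase-reporter HCV replicon) plated at 5×10^3 cells/well and exposed 72 hr to six 3-fold drug concentrations in DMEM/5% FBS. Replicon luciferase gave EC50/EC90; CytoTox-1 cell counts gave IC50 (viability); […]. Interferon alpha-2b served as positive control.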

[4] = target: T2, A156T mutant of the HCV NS3/4A 1b protease enzyme (Hepatitis C virus genotype 1b, UniProt P26663, A1182T); experiment: HCV Protease FRET Assay (IC50), A156T mutant; format: biochemical
T2 construct: 10× stocks of NS3/4A protease enzyme from Bioenza (Mountain View, Calif.); purchased Bioenza (Mountain View, Calif.)

[5] = target: T1, D168A mutant of the HCV NS3/4A 1b protease enzyme; experiment: HCV Protease FRET Assay (IC50_APP), D168A mutant; format: biochemical
[6] = read-out: Inhibition, HCV D168A, D168A enzyme, FRET assay
[7] = Replicon, assay of Example 22, 72 hr, read-out: Inhibition, Replicon
[8] = assay described in Example 22, read-out: Replicon (IC50)
[9] = read-out: Inhibition, HCV A156T, A156T enzyme, FRET assay
[10] = apparent IC50, D168A mutant; read-out: IC50_APP, HCV D168A

In the case of `C=CC(=O)NC[C@H](NC(=O)OC(C)(C)C)C(=O)N1C[C@H](Oc2cc(-c3ccccc3)nc3cc(OC)ccc23)C[C@H]1C(=O)N[C@]1(C(=O)NS(=O)(=O)c2ccccc2)C[C@H]1C=C` [Compound I-3, N-[(1,1-dimethylethoxy)carbonyl]-3-[(2-propenoyl)amino]-L-alanyl-(4R)-4-[(7-methoxy-2-phenyl-4-quinolinyl)oxy]-L-prolyl-1-amino-2-ethenyl-N-(phenylsulfonyl)-(1R,2S)-cyclopropanecarboxamide], the IC50 ([1]; read-out: Comparative IC50 Values, D168A, biochemical assay) is reported as 45 nM, the IC50 [1, 6] is reported as 10 to 100 nM and the “Inhibition, Cytotoxicity” value [2] is reported as “E (IC50≧10,000 nM)”. The IC50 [3, 7] was 10 to 100 nM, the IC50 ([3]; WT, cell-based assay, methods of the Examples, read-out: Comparative IC50 Values, WT) was 20 nM and the IC50 [3, 8] was 10 to 100 nM. It also gave an IC50 ([4]; read-out: Comparative IC50 Values, A156T, biochemical assay) of 18 nM, an IC50 [4, 9] of 10 to 100 nM and an IC50 [5, 10] of 1000 to 10000 nM.

In the case of `C=C[C@@H]1C[C@]1(NC(=O)[C@@H]1C[C@@H](Oc2cc(-c3ccccc3)nc3cc(OC)ccc23)CN1C(=O)[C@H](CNC(=O)CCl)NC(=O)OC(C)(C)C)C(=O)NS(=O)(=O)c1ccccc1` [Compound I-7, N-[(1,1-dimethylethoxy)carbonyl]-3-[(chloroacetyl)amino]-L-alanyl-(4R)-4-[(7-methoxy-2-phenyl-4-quinolinyl)oxy]-L-prolyl-1-amino-2-ethenyl-N-(phenylsulfonyl)-(1R,2S)-cyclopropanecarboxamide], the IC50 [1, 6] is reported as 10 to 100 nM, the “Inhibition, Cytotoxicity” value [2] is reported as “E (IC50≧10,000 nM)” and the IC90 ([3]; assay described in Example 22) is reported as 100 to 1000 nM. It also gave an IC50 [3, 7] of 10 to 100 nM, an IC50 [3, 8] of 10 to 100 nM and an IC50 [4, 9] of 10 to 100 nM. For the same compound, the IC50 ([5]; read-out: IC50_APP, HCV D168A; apparent IC50, D168A mutant) was 100 to 1000 nM.

In the case of `C=CC(=O)NCC(=O)N1C[C@H](Oc2cc(-c3ccccc3)nc3cc(OC)ccc23)C[C@H]1C(=O)N[C@]1(C(=O)NS(=O)(=O)c2ccccc2)C[C@H]1C=C` [Compound I-27, (2S,4R)-1-(2-acrylamidoacetyl)-4-(7-methoxy-2-phenylquinolin-4-yloxy)-N-((1R,2S)-1-(phenylsulfonylcarbamoyl)-2-vinylcyclopropyl)pyrrolidine-2-carboxamide], the IC50 [1, 6] is reported as 10 to 100 nM, the “Inhibition, Cytotoxicity” value [2] is reported as “D (IC50>1000 nM and <10,000 nM)” and the IC90 ([3]; assay described in Example 22) is reported as 100 to 1000 nM. For the same compound, the IC50 [3, 7] was 10 to 100 nM, the IC50 [3, 8] was 100 to 1000 nM and the IC50 [4, 9] was 10 to 100 nM. The IC50 [5, 10] was 100 to 1000 nM.
